Earlier results as cited in article PMC10386414 (Molecules, 2023).

Experiments:
[1] = test system: MOR; parameters: method as in PMID 17625813; settings: receptor binding assay
[2] = earlier work, reference not given
[3] = parameters: method as in PMID 37381112; settings: depending on the animal species used and the pain stimulus
[4] = test system: MOR; parameters: method as in PMID 33479684; settings: cAMP assay, acted as a partial agonist
[5] = parameters: method as in PMID 37381112; settings: in vivo

Structure (SMILES)	MOR affinity [1]	potency in vivo relative to morphine [2]	antinociceptive activity [3]	%Emax (efficacy) [4]	EC50 ([4]; read-out: EC50 (potency))	locomotor effects [5]
Oc1cccc(C23CCCC(C2O)N(CCc2ccccc2)CC3)c1 [1R,5R,9S-OH compound]	sub-nanomolar	about 500 times				
CCC[C@H]1[C@@H]2CCC[C@@]1(c1cccc(O)c1)CCN2CCc1ccccc1 [compound 16]			some antinociceptive activity	45%	1.42 nM	unlike morphine in its locomotor effects
